Test results from the NIST ThermoML archive (doi:10.1021/je700618y).
Numbers after ± are expanded uncertainties.

Tests used:
[1] = refractive index (Na D-line) (dimensionless); xn = mol fraction of the nth substance listed; conditions: 298.15 K, 101 kPa, Liquid, Standard Abbe refractometry
[2] = xn = mol fraction of the nth substance listed; conditions: 298.15 K, 101 kPa, Liquid; for viscosity: Capillary tube (Ostwald / Ubbelohde) method; for mass density: Vibrating tube method
[3] = refractive index (Na D-line) (dimensionless); conditions: 298.15 K; 101.33 kPa; Liquid; Standard Abbe refractometry
[4] = 298.15 K, 101.33 kPa, Liquid; for viscosity: Capillary tube (Ostwald / Ubbelohde) method

CCO [ethanol] + O
Conditions	mass density, [2] [kg/m3]	refractive index, [1]	viscosity, [2] [mPa·s]
x2 = 0.048	791.06 ± 0.13	1.36013 ± 0.00031	1.158 ± 0.013
x2 = 0.1116	799.08 ± 0.13	1.361 ± 0.00031	1.261 ± 0.014
x2 = 0.1599	805.32 ± 0.12	1.3615 ± 0.00031	1.326 ± 0.015
x2 = 0.1761	807.44 ± 0.12	1.36168 ± 0.00031	1.36 ± 0.016
x2 = 0.2668	820.06 ± 0.12	1.36247 ± 0.00031	1.496 ± 0.017
x2 = 0.301	825.06 ± 0.12	1.36266 ± 0.00031	1.556 ± 0.018
x2 = 0.3994	840.69 ± 0.12	1.36295 ± 0.00031	1.726 ± 0.02
x2 = 0.497	858.26 ± 0.12	1.3628 ± 0.00031	1.932 ± 0.022
x2 = 0.6122	882.42 ± 0.12	1.36176 ± 0.00031	2.161 ± 0.024
x2 = 0.7116	907.85 ± 0.13	1.35974 ± 0.00031	2.385 ± 0.027
x2 = 0.7774	926.61 ± 0.13	1.35727 ± 0.00031	2.353 ± 0.027
x2 = 0.8145	937.62 ± 0.14	1.3554 ± 0.00031	2.366 ± 0.027
x2 = 0.8529	949.42 ± 0.13	1.35243 ± 0.00031	2.193 ± 0.025
x2 = 0.8967	960.95 ± 0.13	1.34783 ± 0.00032	1.92 ± 0.022
x2 = 0.9481	976.77 ± 0.13	1.34063 ± 0.00032	1.432 ± 0.017

COS(=O)(=O)[O-].C[N+](CCO)(CCO)CCO [tris(2-hydroxyethyl) methylammonium methylsulfate]
Conditions	refractive index	viscosity [mPa·s]
[3]	1.48489 ± 0.001	–
[4]	–	1236 ± 74

Conditions	mass density [kg/m3]
[4], Vibrating tube method	1344.13 ± 9.9

COS(=O)(=O)[O-].C[N+](CCO)(CCO)CCO [tris(2-hydroxyethyl) methylammonium methylsulfate] + O
Conditions	mass density, [2] [kg/m3]	refractive index, [1]	viscosity, [2] [mPa·s]
x1 = 0.0478	1129.13 ± 1	1.38887 ± 0.00046	2.341 ± 0.027
x1 = 0.0967	1195.06 ± 0.65	1.41769 ± 0.00038	5.054 ± 0.071
x1 = 0.1939	1258.48 ± 0.59	1.44581 ± 0.00039	16.79 ± 0.21
x1 = 0.2421	1275.98 ± 0.77	1.4539 ± 0.00041	27 ± 0.35
x1 = 0.2894	1288.49 ± 0.94	1.45949 ± 0.00044	41.22 ± 0.57
x1 = 0.3872	1306.02 ± 1.5	1.46758 ± 0.00051	86.07 ± 1.4
x1 = 0.4858	1317.49 ± 2.3	1.47335 ± 0.00059	159.5 ± 3.9
x1 = 0.6064	1327.14 ± 3.6	1.47587 ± 0.00069	290.1 ± 9.8
x1 = 0.6698	1330.96 ± 4.4	1.47878 ± 0.00074	390.7 ± 15
x1 = 0.7822	1336.36 ± 6	1.4813 ± 0.00085	569 ± 26
x1 = 0.867	1339.64 ± 7.3	1.4827 ± 0.00092	756.2 ± 38
x1 = 0.9398	1342.07 ± 8.7	1.48341 ± 0.00099	960.7 ± 53

COS(=O)(=O)[O-].C[N+](CCO)(CCO)CCO [tris(2-hydroxyethyl) methylammonium methylsulfate] + CCO
Conditions	mass density, [2] [kg/m3]	refractive index, [1]	viscosity, [2] [mPa·s]
x1 = 0.0482	876.74 ± 0.61	1.3818 ± 0.00035	2.26 ± 0.032
x1 = 0.0981	951.17 ± 0.55	1.39899 ± 0.00036	4.523 ± 0.058
x1 = 0.1509	1014.1 ± 0.48	1.41373 ± 0.00038	8.351 ± 0.11
x1 = 0.1994	1061.07 ± 0.51	1.42476 ± 0.0004	13.32 ± 0.17
x1 = 0.242	1097.16 ± 0.6	1.43322 ± 0.00042	19.62 ± 0.26
x1 = 0.2922	1132.75 ± 0.78	1.44083 ± 0.00045	29.16 ± 0.41
x1 = 0.3882	1187.8 ± 1.3	1.45307 ± 0.00052	58.72 ± 0.88
x1 = 0.4841	1229.34 ± 2.1	1.46222 ± 0.00059	110.8 ± 2.3
x1 = 0.5923	1264.46 ± 3.2	1.4695 ± 0.00068	204.3 ± 5.8
x1 = 0.6288	1273.93 ± 3.6	1.47153 ± 0.00072	247.6 ± 7.8
x1 = 0.6881	1288.67 ± 4.4	1.47511 ± 0.00077	333.6 ± 12
x1 = 0.7379	1299.19 ± 5.1	1.47666 ± 0.00081	430.4 ± 18
x1 = 0.7878	1309.46 ± 5.9	1.47867 ± 0.00085	518.1 ± 23
x1 = 0.8379	1318.78 ± 6.7	1.48018 ± 0.0009	657.1 ± 32
x1 = 0.8738	1324.39 ± 7.3	1.48134 ± 0.00093	775.7 ± 40
x1 = 0.9203	1331.87 ± 8.2	1.48278 ± 0.00097	902.1 ± 49

CCO [ethanol]
Conditions	mass density [kg/m3]	refractive index	viscosity [mPa·s]
[3]	–	1.35937 ± 0.00031	–
[4]	785.12 ± 0.24	–	1.076 ± 0.012
